Measurements: patent US20260182611A1, “SWEETENER COMPOSITION AND TASTE-IMPROVING AGENT” (AJINOMOTO CO., INC., priority 2023, published 2026)

Experiment: Sensory evaluation of taste quality (sweetness intensity, bitter taste, lingering sweetness) of sweet solutions by trained panel
Design: species or system human
Details: closer to PC sucrose
Experimental: Rebaudioside A (MORITA KAGAKU KOGYO CO., LTD.) was dissolved in filtered water (ion exchange water) to prepare a 720 ppm aqueous solution of rebaudioside A, which was used as the negative control (NC) solution.
Sucrose (Mitsui DM Sugar Co., Ltd.) was dissolved in filtered water to prepare a 7.5% aqueous solution of sucrose, which was used as the positive control (PC) solution.
Sweet solutions prepared by adding each compound (naringenin (Penta Manufacturing Company), hesperetin (Xi'an International Healthcare Factory Co., Ltd.), pinocembrin (Shaanxi Ebony Biotech Co., Ltd.), γ-Glu-Val-Gly (AJINOMOTO CO., INC.), γ-Glu-Abu (AJINOMOTO CO., INC.), yeast extract containing γ-Glu-Abu, γ-nonalactone (Sigma-Aldrich Co. LLC.)) to NC solution at the concentrations indicated in Tables 1 to 5 were evaluated by sensory evaluation.
The yeast extract containing γ-Glu-Abu used in this example was a powdered yeast extract containing 7 to 13% (w/w) γ-Glu-Abu based on dry weight, which was produced in accordance with the method described in WO 2012/046731 or “Savorboost (product name) yeast extract containing γ-Glu-Abu (Asahi Group Foods, Ltd.)”. In Tables 1-4, the concentration of the yeast extract containing γ-Glu-Abu added is shown as a value converted to the amount of γ-Glu-Abu in the yeast extract.
The taste quality of the PC solution (7.5% sucrose) was scored as 10.0 points, the taste quality of the NC solution (720 ppm rebaudioside A) was scored as 1.0 points, and the sensory evaluation score for each sample was evaluated in 0.1 point increments. The taste quality was evaluated including sweetness intensity, intensity of bitter taste, and intensity of lingering sweetness. Samples with an evaluation score of 3 or higher were deemed to have a taste quality-improving effect. The evaluation was performed by a panel of four people who had received sensory evaluation training, and was conducted by blind evaluation. The average evaluation score of all panel members was calculated and addition effect was examined.
In addition, to compare with the addition effect of a single component, a theoretical additive point was calculated and compared with the evaluation score when the components were added in combination to examine the presence or absence of a synergistic effect.

[1] = 5 ppm of the flavonoid in combination with 0.3 ppm γ-Glu-Val-Gly
[2] = flavonoid in combination with γ-Glu-Abu or a yeast extract containing γ-Glu-Abu

SMILES: COc1ccc(C2CC(=O)c3c(O)cc(O)cc3O2)cc1O (stereo not shown) [hesperetin]
- taste quality of rebaudioside A [1]: synergistically improved the taste quality of rebaudioside A
- taste quality of rebaudioside A [2]: synergistically improved the taste quality of rebaudioside A

SMILES: O=C1C[C@@H](c2ccc(O)cc2)Oc2cc(O)cc(O)c21 [naringenin]
- taste quality of rebaudioside A [1]: synergistically improved the taste quality of rebaudioside A
- taste quality of rebaudioside A [2]: synergistically improved the taste quality of rebaudioside A

SMILES: O=C1CC(c2ccccc2)Oc2cc(O)cc(O)c21 (stereo not shown) [pinocembrin]
- taste quality of rebaudioside A [1]: synergistically improved the taste quality of rebaudioside A
- taste quality of rebaudioside A (combination of pinocembrin and rebaudioside A alone): improved the taste quality of rebaudioside A
- taste quality of rebaudioside A [2]: synergistically improved the taste quality of rebaudioside A
